Source: the Deep4Chem optical property database

Assay: solvent given as SMILES

Work on `Nc1nc2ccc([N+](=O)[O-])cc2s1` yielded a fluorescence lifetime (in CC#N) of 4.11 ns and a fluorescence lifetime (in ClCCl) of 3.53 ns.

Work on `Cc1ccc(/C2=c3\cc/c(o3)=C(\c3ccc(C)cc3)c3ccc([nH]3)-c3ccc4n3[P-](=O)(=O)[N+]3=C(C=CC3=C4c3cccs3)c3ccc2[nH]3)cc1` yielded a fluorescence lifetime (in ClC(Cl)Cl) of 4.3 ns.

Compound `Cc1cc(-c2cccc3ccccc23)cc(C)[o+]1` has a fluorescence lifetime (in ClCCl) of 13.4 ns.

Work on `CCN(CC)c1ccc2c(-c3ccccc3C(=O)O)c3c([o+]c2c1)/C(=C/C=C/c1ccc(N(C)C)cc1)CCC3` yielded a fluorescence lifetime (in ClCCl) of 1.03 ns.

`O=C1c2ccccc2-c2cnccc21` showed a fluorescence lifetime (in CC#N) of 6.7 ns, a fluorescence lifetime (in CCOC(C)=O) of 2.4 ns and a fluorescence lifetime (in Cc1ccccc1) of 2.2 ns. For the same compound, the fluorescence lifetime (in ClCCl) was 6.1 ns.

`Cc1cc(-c2nnc(-c3ccccc3)o2)ccc1-n1c2ccccc2c2ccccc21` showed a fluorescence lifetime (in CCO) of 1.82 ns.

Work on `Cc1ccc(C)n1-c1ccccc1` yielded a fluorescence lifetime (in CC#N) of 5 ns.

With `CCCCCCN1C(=O)c2cccc3c(-c4scc5c4OCCO5)ccc(c23)C1=O` the fluorescence lifetime (in ClC(Cl)Cl) was 3.51 ns.

Compound `CC(C)(C)[Si](C)(C)c1ccc([Si](C)(C)C(C)(C)C)c2ccccc12` has a fluorescence lifetime (in C1CCCCC1) of 12 ns.

Work on `O=C([O-])c1ccc(C(=O)[O-])c2cc3ccccc3cc12` yielded a fluorescence lifetime (in CN(C)C=O) of 1 ns.

Work on `COc1ccc(C2=Cc3ccccc3P2(=O)c2ccccc2)cc1` (stereo not drawn) yielded a fluorescence lifetime (in ClCCl) of 6.4 ns.

With `CCCCn1c2c(-c3ccc(N(c4ccccc4)c4ccccc4)cc3)cc(C#N)cc2c2cc(C#N)cc(-c3ccc(N(c4ccccc4)c4ccccc4)cc3)c21` the fluorescence lifetime (in ClCCl) was 2.29 ns.

`Cc1ccc(-n2c3ccccc3c3cc(-c4ccc5[n+](c4)[B-](F)(F)n4c-5nc5c6ccccc6c6ccccc6c54)ccc32)cc1` gave a fluorescence lifetime (in ClC(Cl)Cl) of 15 ns.

With `Nc1cccc2c1C(=O)NC2=O` the fluorescence lifetime (in C1CCOC1) was 15.2 ns, the fluorescence lifetime (in CCO) was 16.3 ns and the fluorescence lifetime (in CN(C)C=O) was 15.8 ns.

With `Cc1ccc(N(c2ccc(C)cc2)c2ccc3c4cccc5c(N(c6ccc(C)cc6)c6ccc(C)cc6)ccc(c6cccc2c63)c54)cc1` the fluorescence lifetime (in ClCCl) was 6.25 ns.

`Cc1cc(=O)oc2c1cc(Br)c1occ(C)c12` showed a fluorescence lifetime (in C1COCCO1) of 0.023 ns, a fluorescence lifetime (in CC#N) of 0.044 ns and a fluorescence lifetime (in CCO) of 0.08 ns. The fluorescence lifetime (in OCC(F)(F)F) was 0.13 ns.

In the case of `CCN(CC)c1ccc2cc(/C=C/c3ccccc3)c(=O)oc2c1`, the fluorescence lifetime (in CC#N) is reported as 2.25 ns.

`N#CC=C(c1ccc(N2c3ccccc3Oc3ccccc32)cc1)c1ccc(N2c3ccccc3Oc3ccccc32)cc1` showed a fluorescence lifetime (in Cc1ccccc1) of 5.84 ns.

With `CCCCCCCCCCCCN1C(=O)c2cccc3c(N(Cc4ccccn4)Cc4ccccn4)c4ccccc4c(c23)C1=O` the fluorescence lifetime (in CCO) was 5.52 ns.

Work on `Cc1ccc(-c2ccc(/C=C/c3ccc(Cl)cc3)cn2)nc1` yielded a fluorescence lifetime (in CC#N) of 1.01 ns.

For `Cc1ccc(-c2ccc(-c3ccc(C)cc3)c(/C(=C(/c3ccccc3)c3cc(-c4ccc(C)cc4)ccc3-c3ccc(C)cc3)c3ccccc3)c2)cc1`, the fluorescence lifetime (in C1CCOC1) was 8 ns.

`CN1CCN(CCCN2c3ccccc3Sc3ccc(C(F)(F)F)cc32)CC1` showed a fluorescence lifetime (in CC#N) of 2.68 ns, a fluorescence lifetime (in CO) of 2.52 ns and a fluorescence lifetime (in O) of 3.01 ns.

For `CC(C)(C)c1ccc2c(c1)c1cc(C(C)(C)C)ccc1n2-c1ccc(C#Cc2ccc3c4ccc(C#Cc5ccc(-n6c7ccc(C(C)(C)C)cc7c7cc(C(C)(C)C)ccc76)cc5)cc4n(-c4ccc(C(F)(F)F)cc4)c3c2)cc1`, the fluorescence lifetime (in ClCCl) was 0.1 ns.

Compound `COC(=O)C(NC(=O)OC(C)(C)C)c1ccc2oc(-c3ccc(C#N)cc3)nc2c1` (stereo not drawn) has a fluorescence lifetime (in CC1CCCCC1) of 1.28 ns, a fluorescence lifetime (in CC#N) of 1.87 ns and a fluorescence lifetime (in CO) of 1.92 ns.

`CC(C)(C)c1ccc2c(c1)c1cc(C(C)(C)C)ccc1n2-c1cc(N2c3ccccc3C(c3ccccc3)(c3ccccc3)c3ccccc32)cc(-n2c3ccc(C(C)(C)C)cc3c3cc(C(C)(C)C)ccc32)c1C#N` gave a fluorescence lifetime (in Cc1ccccc1) of 14.2 ns.

`O=Cc1ccc(C2=C3C=c4c(oc5ccccc45)=[N+]3[B-](F)(F)n3c2cc2c4ccccc4oc23)cc1` showed a fluorescence lifetime (in C1CCCCC1) of 2.47 ns, a fluorescence lifetime (in C1CCOC1) of 2.09 ns and a fluorescence lifetime (in CC#N) of 2.38 ns. The fluorescence lifetime (in CCOC(C)=O) was 2.12 ns, the fluorescence lifetime (in CN(C)C=O) was 2.3 ns and the fluorescence lifetime (in CO) was 2.73 ns. It also gave a fluorescence lifetime (in Cc1ccccc1) of 2.44 ns and a fluorescence lifetime (in ClCCl) of 2.49 ns.

For `CN(C)c1ccc(-c2nc(C#N)c(C#N)n2C)cc1`, the fluorescence lifetime (in C1CCCCC1) was 1.3 ns and the fluorescence lifetime (in ClC(Cl)Cl) was 3.5 ns.

Compound `Cc1cn(C(F)(F)F)c(=O)[nH]c1=O` has a fluorescence lifetime (in CC#N) of 0.0001 ns.

`CCCCCn1c2ccc(S(=O)(=O)O)cc2c(=O)c2cc(S(=O)(=O)O)ccc21` gave a fluorescence lifetime (in CS(C)=O) of 10.2 ns and a fluorescence lifetime (in O) of 15.6 ns.

`c1ccc(-c2nc(-c3ccccc3)nc(-c3ccc(-n4c5ccccc5c5ccc6c7ccccc7n(-c7ccccc7)c6c54)cc3)n2)cc1` showed a fluorescence lifetime (in O=P(c1ccccc1)(c1ccccc1)c1ccc2oc3ccc(P(=O)(c4ccccc4)c4ccccc4)cc3c2c1) of 11.9 ns.

`N#Cc1ccc(C2=CC3=c4cc(-c5ccc(C#N)cc5)c5nc(C(F)(F)C(F)(F)C(F)(F)F)nc6c(-c7ccc(C#N)cc7)cc(c4c65)C4=CC(c5ccc(C#N)cc5)=C5N=C(C(F)(F)C(F)(F)C(F)(F)F)N=C2C5C43)cc1` (stereo not drawn) showed a fluorescence lifetime (in C1CCOC1) of 2.8 ns.

For `CN(C)c1ccc(C(=Cc2ccc(/C=C(\C#N)c3ccccc3)cc2)c2ccc(N(C)C)cc2)cc1`, the fluorescence lifetime (in C1CCOC1) was 0.3 ns.

Compound `CCCCCCCc1ccc(C2=[N+]3C(=C4c5cc(OCC(CC)CC)c(-c6ccc(CCCCCCC)o6)n5[B-](F)(F)[n+]5nnn(c54)[B-]3(F)F)C=C2OCC(CC)CC)o1` has a fluorescence lifetime (in C1CCOC1) of 0.3 ns and a fluorescence lifetime (in ClCCl) of 0.3 ns.

Work on `CCc1ccc(-n2c3ccccc3c3cc4c(cc32)c2ccccc2n4-c2ccc(CC)cc2)cc1` yielded a fluorescence lifetime (in ClC(Cl)Cl) of 3.62 ns.

`c1ccc(-c2c3ccccc3c(-c3cncnc3)c3ccccc23)cc1` gave a fluorescence lifetime (in CCO) of 3.5 ns and a fluorescence lifetime (in ClCCl) of 6.9 ns.

In the case of `CCCCCCCCCCCCN1C(=O)c2ccc3c4ccc5c6c(ccc(c7ccc(c2c37)C1=O)c64)C(=O)NC5=O`, the fluorescence lifetime (in CN(C)C=O) is reported as 3 ns.

`CCCCCCCCn1c2ccccc2c(=O)c2ccccc21` showed a fluorescence lifetime (in CS(C)=O) of 7.96 ns.

In the case of `Cc1ccccc1C`, the fluorescence lifetime (in C1CCCCC1) is reported as 51 ns.

Compound `N#Cc1ccc(N(c2ccc(C#N)cc2)c2ccc3c4cccc5c(N(c6ccc(C#N)cc6)c6ccc(C#N)cc6)ccc(c6cccc2c63)c54)cc1` has a fluorescence lifetime (in ClCCl) of 3.54 ns.

`CCC1(CC)c2ccccc2-c2c1c1c(c3c2C(CC)(CC)c2cc(B(c4c(C)cc(C)cc4C)c4c(C)cc(C)cc4C)ccc2-3)C(CC)(CC)c2cc(B(c3c(C)cc(C)cc3C)c3c(C)cc(C)cc3C)ccc2-1` gave a fluorescence lifetime (in C1CCOC1) of 4.2 ns.

`O=C(O)c1ccc(-c2nc(-c3ccccc3)c3c4ccccc4ccn23)cc1` gave a fluorescence lifetime (in CC#N) of 2.5 ns.

With `c1ccc(-c2nc(-c3ccc(-c4cccs4)s3)[nH]c2-c2ccccc2)cc1` the fluorescence lifetime (in CC#N) was 0.86 ns.

Compound `COc1ccccc1` has a fluorescence lifetime (in C1CCCCC1) of 11.1 ns.

Work on `c12c3c4c5c1c1c6c7c2c2c8c3c3c9c4c4c%10c5c5c1c1c6c6c%11c%12c%13c%14c%15c%16c%17c%14c%14c%18c%13c%11c1c1c5c%10c5c(c%14c%10c%17c%11c%13c%16c%14c%16c%15c%12c%12c%16c(c2c7c%126)c2c8c3c(c%13c%142)c2c9c4c5c%10c%112)c%181` yielded a fluorescence lifetime (in CC1CCCCC1) of 0.65 ns.

For `CN1CCCc2cc3c(C(F)(F)F)cc(=O)oc3cc21`, the fluorescence lifetime (in C1CCCCC1) was 4.2 ns, the fluorescence lifetime (in CC#N) was 5.6 ns and the fluorescence lifetime (in CCO) was 5.1 ns.

In the case of `c1ccc(Nc2nc(Nc3ccccc3)nc(Nc3ccc4cc5ccccc5cc4c3)n2)cc1`, the fluorescence lifetime (in C1COCCO1) is reported as 13.3 ns and the fluorescence lifetime (in CCOC(C)=O) is reported as 9 ns.

In the case of `COc1c(-c2ccc(N(C)C)cc2)oc2ccccc2c1=O`, the fluorescence lifetime (in C1CCCCC1) is reported as 0.67 ns, the fluorescence lifetime (in C1CCOC1) is reported as 2.05 ns and the fluorescence lifetime (in CC#N) is reported as 2.71 ns. For the same compound, the fluorescence lifetime (in CCOC(C)=O) was 1.67 ns and the fluorescence lifetime (in CCOCC) was 0.88 ns.

`C/C=C/c1ccc(OC)c(OC)c1` showed a fluorescence lifetime (in CC#N) of 4 ns and a fluorescence lifetime (in CCCCCC) of 3.7 ns.

Work on `Cc1ccc(NC(=O)c2sc(Br)nc2C)cc1` yielded a fluorescence lifetime (in CO) of 0.22 ns and a fluorescence lifetime (in ClC(Cl)Cl) of 0.12 ns.

`[C-]#[N+]c1ccc(-c2ccc(NC)cc2)cc1` gave a fluorescence lifetime (in CC#N) of 1.8 ns and a fluorescence lifetime (in CCOC(C)=O) of 1.4 ns.

For `CC(=O)c1ccc(-c2nc3ccc(N(C)C)c(Br)c3s2)cc1`, the fluorescence lifetime (in C1CCCCC1) was 0.1 ns.

With `O=C(O)c1cccc2c(=O)c3ccccc3[nH]c12` the fluorescence lifetime (in O) was 3.1 ns.

`CCN1\C(=C/C=C/C=C/C2=[N+](CC)c3ccc4ccccc4c3C2(C)C)C(C)(C)c2c1ccc1ccccc21` showed a fluorescence lifetime (in C1CCOC1) of 1.11 ns, a fluorescence lifetime (in CC#N) of 0.85 ns and a fluorescence lifetime (in CC(C)=O) of 0.96 ns. For the same compound, the fluorescence lifetime (in CCO) was 0.93 ns, the fluorescence lifetime (in CN(C)C=O) was 1.19 ns and the fluorescence lifetime (in CO) was 0.76 ns. It also gave a fluorescence lifetime (in CS(C)=O) of 1.31 ns and a fluorescence lifetime (in ClCCl) of 1.3 ns.

In the case of `Cc1ccc(/C2=c3\cc/c(o3)=C(\c3ccc(C)cc3)c3ccc([nH]3)-c3ccc4n3[P-](=O)(=O)[N+]3=C(C=CC3=C4c3ccc[nH]3)c3ccc2[nH]3)cc1`, the fluorescence lifetime (in ClC(Cl)Cl) is reported as 4 ns.

With `c1ccc(-c2cc(-c3ccccc3)cc(-c3ccc4c(c3)C3(c5cc(-c6cc(-c7ccccc7)cc(-c7ccccc7)c6)ccc5-4)c4ccccc4-c4c3c3c5ccccc5ccc3c3ccccc43)c2)cc1` the fluorescence lifetime (in Cc1ccccc1) was 3.07 ns.

Compound `CCn1c2ccccc2c2cc(-c3cc(-c4ccc5c(c4)c4ccccc4n5CC)nc(S(C)(=O)=O)n3)ccc21` has a fluorescence lifetime (in C1CCOC1) of 2.31 ns.

In the case of `CCOC(=O)CCCCCn1c2ccc(N)cc2c(=O)c2cc(N)ccc21`, the fluorescence lifetime (in O) is reported as 11.5 ns.

`O=c1c2cccc3cccc(c32)c2nc3c4ccccc4c4ccccc4c3n12` showed a fluorescence lifetime (in ClCCl) of 5.5 ns.

`CCCCOC(=O)c1ccccc1-c1c2ccc(=[N+](CC)CC)cc-2oc2cc(N(CC)CC)ccc12` showed a fluorescence lifetime (in CC#N) of 1.61 ns, a fluorescence lifetime (in CCO) of 2.92 ns and a fluorescence lifetime (in CN(C)C=O) of 1.92 ns. For the same compound, the fluorescence lifetime (in O) was 1.67 ns.

In the case of `CCOC(=O)c1cc(C)n2nc(-c3ccccc3)ccc12`, the fluorescence lifetime (in CCCCCC) is reported as 17.4 ns.

`CN(C)c1ccc(-c2nc3c(c4c2-c2ccc(C#N)cc2CC4)-c2ccc(C#N)cc2CC3)cc1` showed a fluorescence lifetime (in C1CCOC1) of 2.93 ns, a fluorescence lifetime (in CC#N) of 3.56 ns and a fluorescence lifetime (in CCCCCC) of 0.6 ns. For the same compound, the fluorescence lifetime (in CCOC(C)=O) was 2.55 ns, the fluorescence lifetime (in CO) was 1.13 ns and the fluorescence lifetime (in CS(C)=O) was 1.79 ns. For the same compound, the fluorescence lifetime (in Cc1ccccc1) was 1.4 ns and the fluorescence lifetime (in ClCCl) was 1.68 ns.

For `CC1(C)c2ccccc2N(c2ccc3nc4c5ccc(N6c7ccccc7C(C)(C)c7ccccc76)cc5c5cc(N6c7ccccc7C(C)(C)c7ccccc76)ccc5c4nc3c2)c2ccccc21`, the fluorescence lifetime (in c1cc(-c2cccc(-n3c4ccccc4c4ccccc43)c2)cc(-n2c3ccccc3c3ccccc32)c1) was 32 ns.
